Data taken from patent publication US8822449B2, “Substituted aminoindanes and analogs thereof, and the pharmaceutical use thereof” (Sanofi, priority 2008, dated 2014).
pIC50: −log10 of the molar value.

Biological target: T1, sodium-proton exchanger of subtype 3 (NHE3) (Homo sapiens, UniProt P48764)
T1 construct: expressed in transfected cells
T1 sequence (P48764 26-834): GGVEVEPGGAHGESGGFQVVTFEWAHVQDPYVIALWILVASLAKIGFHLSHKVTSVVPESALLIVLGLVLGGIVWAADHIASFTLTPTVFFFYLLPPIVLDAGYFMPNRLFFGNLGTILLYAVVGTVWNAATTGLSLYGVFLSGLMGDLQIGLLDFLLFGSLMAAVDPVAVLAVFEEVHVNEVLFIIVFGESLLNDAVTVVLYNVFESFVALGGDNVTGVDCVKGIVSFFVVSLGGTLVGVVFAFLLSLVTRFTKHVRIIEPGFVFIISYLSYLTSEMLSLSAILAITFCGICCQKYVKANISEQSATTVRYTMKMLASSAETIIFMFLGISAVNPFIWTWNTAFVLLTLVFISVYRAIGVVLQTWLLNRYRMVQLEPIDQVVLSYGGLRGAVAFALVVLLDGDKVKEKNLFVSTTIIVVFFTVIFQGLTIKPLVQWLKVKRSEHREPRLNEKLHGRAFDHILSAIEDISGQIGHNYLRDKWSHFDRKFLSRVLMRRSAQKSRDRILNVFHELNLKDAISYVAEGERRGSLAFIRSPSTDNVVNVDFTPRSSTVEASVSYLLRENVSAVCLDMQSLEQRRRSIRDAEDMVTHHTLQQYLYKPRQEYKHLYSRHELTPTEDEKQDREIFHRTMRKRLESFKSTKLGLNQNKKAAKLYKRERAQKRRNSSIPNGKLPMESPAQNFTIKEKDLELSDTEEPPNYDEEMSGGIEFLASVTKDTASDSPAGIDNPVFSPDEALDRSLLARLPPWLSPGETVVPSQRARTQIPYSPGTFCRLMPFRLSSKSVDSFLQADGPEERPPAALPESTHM
Assay: Recovery of intracellular pH (pHi) after acidification in LAP1 cells stably expressing NHE3 (BCECF fluorescence, FLIPR)
Assay type: cell-based
Details: LAP1 cells stably expressing NHE3; pH recovery after acidification; range 1 is % inhibition at 10 μM; read-out: Activity range (inhibitory effect on NHE3)

Row | Compound | pIC50 | inhibition at 10 µM
1 | CC1(C)NC(=O)N(c2ccc(O[C@H]3c4cc(Cl)cc(Cl)c4C[C@@H]3N3CC[C@@H](O)C3)c(Cl)c2)C1=O [Example 423, 3-{3-chloro-4-[(1S,2S)-4,6-dichloro-2-((R)-3-hydroxypyrrolidin-1-yl)indan-1-yloxy]phenyl}-5,5-dimethylimidazolidine-2,4-dione] | 5.00 to 6.00 | –
2 | CS(=O)(=O)c1ccc(O[C@H]2c3cc(Cl)cc(Cl)c3C[C@@H]2N2CCN(C3CC3)CC2)cc1 [Example 351, 1-Cyclopropyl-4-[trans-(1S,2S)-4,6-dichloro-1-(4-methanesulfonylphenoxy)indan-2-yl]piperazine] | – | 20 to 50%
3 | N[C@@H]1CCCN([C@H]2CCc3ccccc3[C@@H]2Oc2ccc3oc(=O)sc3c2)C1 (racemic) [Example 578, 5-[rac-trans-(1,2)-2-((R)-3-aminopiperidin-1-yl)-1,2,3,4-tetrahydronaphthalen-1-yloxy]benzo[1,3]oxathiol-2-one] | – | 20 to 50%
4 | Cc1nnc(C)n1-c1ccc(O[C@H]2c3cc(Cl)cc(Cl)c3C[C@@H]2N2CCCN(C)CC2)c(Cl)c1 [Example 345, 1-{trans-(1S,2S)-4,6-dichloro-1-[2-chloro-4-(3,5-dimethyl-[1,2,4]triazol-4-yl)phenoxy]indan-2-yl}-4-methyl-[1,4]diazepane] | > 6.00 | –
5 | CC(=O)Nc1cccc(O[C@H]2c3cc(Cl)cc(Cl)c3C[C@@H]2N2CC3CNCC3C2)c1 (mixture of isomers) [Example 689, N-{3-[rac-trans-(1,2)-4,6-dichloro-2-(hexahydropyrrolo[3,4-c]pyrrol-2-yl)indan-1-yloxy]phenyl}acetamide] | > 6.00 | –
6 | O=C1CCC(=O)N1c1cccc(O[C@H]2c3ccccc3C[C@@H]2N2CCCC2)c1 (racemic) [Example 256, 1-[3-(rac-trans-(1,2)-2-pyrrolidin-1-ylindan-1-yloxy)phenyl]pyrrolidine-2,5-dione] | 5.00 to 6.00 | –
7 | Fc1ccc(O[C@H]2c3cc(Cl)cc(Cl)c3C[C@@H]2N2CCCC2)c2ncccc12 [Example 593, 8-((1S,2S)-4,6-dichloro-2-pyrrolidin-1-ylindan-1-yloxy)-5-fluoroquinoline] | – | 20 to 50%
8 | NC(=O)c1ccccc1O[C@H]1c2ccccc2CC[C@@H]1N1CCC[C@@H](N)C1 (racemic) [Example 368, 2-[rac-trans-(1,2)-2-((R)-3-aminopiperidin-1-yl)-1,2,3,4-tetrahydronaphthalen-1-yloxy]benzamide] | 5.00 to 6.00 | –
9 | N[C@H]1CCCN([C@H]2CCc3ccccc3[C@@H]2Oc2ccc(NC(=O)OCc3ccccc3)cc2)C1 (racemic) [Example 239, {4-[rac-trans-(1,2)-2-((S)-3-aminopiperidin-1-yl)-1,2,3,4-tetrahydronaphthalen-1-yloxy]phenyl}carbamic acid benzyl ester] | – | 20 to 50%
10 | N[C@@H]1CCCN([C@@H]2Cc3ccccc3[C@H]2Oc2ccc(NC(=O)OCc3ccccc3)cc2)C1 (racemic) [Example 238, {4-[rac-trans-(1,2)-2-((R)-3-aminopiperidin-1-yl)indan-1-yloxy]phenyl}carbamic acid benzyl ester] | 5.00 to 6.00 | –
11 | Cc1nc2cc(O[C@@H]3c4ccccc4C[C@H]3N3C[C@H]4CNC[C@H]4C3)ccc2s1 (racemic) [Example 576, 5-[rac-trans-(1,2)-2-(hexahydropyrrolo[3,4-c]pyrrol-2-yl)indan-1-yloxy]-2-methylbenzothiazole] | 5.00 to 6.00 | –
12 | NS(=O)(=O)c1ccc(O[C@H]2c3cc(Cl)cc(F)c3C[C@@H]2NC2CCCC2)c(F)c1 [Example 750, 4-(trans-(1S,2S)-6-Chloro-2-cyclopentylamino-4-fluoro-indan-1-yloxy)-3-fluoro-benzenesulfonamide] | 5.00 to 6.00 | –
13 | CC(=O)Nc1cccc(O[C@@H]2c3ccccc3C[C@H]2N2CCC[C@H](N)C2)c1 (racemic) [Example 685, N-{3-[rac-trans-(1,2)-2-((S)-3-aminopiperidin-1-yl)indan-1-yloxy]phenyl}acetamide] | 5.00 to 6.00 | –
